From US6355799B1, “Substituted benzene compounds, process for their preparation, and herbicidal and defoliant compositions containing them” (ISK Americas Incorporated, priority 1997, dated 2002)

Assays:
Assay type in all cases: in vivo
[1] = tested on: redroot pigweed (Amaranthus retroflexus, AMARE); test: Pre-emerge test, greenhouse herbicide activity screening; conditions: pre-emerge, rated 14 days after application, 0 = no damage, 100 = complete death
How it was run: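 Plants grown in 10 cm pots of sandy loam mix received acetone-dissolved compounds through a moving flat-fan nozzle. Doses ranged from 15 to 1000 g ai/ha. Pre-emerge pots were seeded one day earlier, post-emerge pots 8–21 days earlier. Fourteen days on, each pot was graded 0–100 for damage.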

[2] = tested on: barnyardgrass (Echinochloa crus-galli, ECHCG); test: as above; conditions: pre-emerge, rated 14 days after application, 0 = no damage, 100 = complete death
How it was run: (§1)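 Compounds in acetone were track-sprayed at 15-1000 g ai/ha (187 l/ha) on sandy loam pots: pre-emerge one day after seeding, post-emerge at 2-3 leaf stage with 0.25% v/v non-ionic surfactant. Phytotoxicity was rated 14 days later on a 0 (no damage) to 100 (complete death) scale.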

[3] = tested on: common ragweed (Ambrosia artemisizfolia L., AMBEL); test: as above; conditions: pre-emerge, rated 14 days after application, 0 = no damage, 100 = complete death
How it was run: as §1

[4] = tested on: green foxtail (Setaria viridis, SETVI); test: as above; conditions: pre-emerge, rated 14 days after application, 0 = no damage, 100 = complete death
How it was run: as §1

[5] = tested on: ivyleaf morningglory (Ipomoea hederacea, IPOHE); test: as above; conditions: pre-emerge, rated 14 days after application, 0 = no damage, 100 = complete death
How it was run: as §1

[6] = tested on: johnsongrass (Sorghum halepense, SORHA); test: as above; conditions: pre-emerge, rated 14 days after application, 0 = no damage, 100 = complete death
How it was run: as §1

[7] = tested on: lambsquarters (Chenopodium album, CHEAL); test: as above; conditions: pre-emerge, rated 14 days after application, 0 = no damage, 100 = complete death
How it was run: as §1

[8] = tested on: large crabgrass (Digitaria sanguinalis, DIGSA); test: as above; conditions: pre-emerge, rated 14 days after application, 0 = no damage, 100 = complete death
How it was run: as §1

[9] = tested on: sicklepod (Cassia obtusifolia, CASOB); test: as above; conditions: pre-emerge, rated 14 days after application, 0 = no damage, 100 = complete death
How it was run: as §1

[10] = tested on: velvetleaf (Abutilon theophrasti, ABUTH); test: as above; conditions: pre-emerge, rated 14 days after application, 0 = no damage, 100 = complete death
How it was run: as §1

[11] = tested on: field corn (Zea mays L., var. Dekalb 535, CORN); test: Pre-emerge test, crop safety; conditions: pre-emerge, rated 14 days after application, 0 = no damage, 100 = complete death
How it was run: (§2)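 Sandy loam pots; pre-emerge: sown 1 d pre-spray, surface-watered after, then bottom-watered. Post-emerge: sown 8–21 d before, 2–3 leaf stage, + 0.25% v/v NIS, bottom-watered. Acetone, 187 l/ha track spray, 15–1000 g ai/ha. 0–100 injury score, day 14.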

[12] = tested on: upland rice (Oryza sp., var. Tebonnet, RICE); test: Pre-emerge test, crop safety; conditions: pre-emerge, rated 14 days after application, 0 = no damage, 100 = complete death
How it was run: as §2

[13] = tested on: barnyardgrass (Echinochloa crus-galli, ECHCG); test: Post-emerge test, greenhouse herbicide activity screening; conditions: phytotoxicity rating 0-100 (0 no damage, 100 complete death), 14 days after application
How it was run: (§3)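 Rating: 0–100 visual injury, 14 DAA. Application: acetone, 187 l/ha, 15–1000 g ai/ha, flat-fan track sprayer with nozzle 40–45 cm above soil or canopy. Post-emerge runs used 0.25% v/v surfactant on 2–3 leaf plants.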

[14] = tested on: common ragweed (Ambrosia artemisizfolia L., AMBEL); test: as above; conditions: phytotoxicity rating 0-100 (0 no damage, 100 complete death), 14 days after application
How it was run: as §3

[15] = tested on: ivyleaf morningglory (Ipomoea hederacea, IPOHE); test: as above; conditions: phytotoxicity rating 0-100 (0 no damage, 100 complete death), 14 days after application
How it was run: as §3

[16] = tested on: johnsongrass (Sorghum halepense, SORHA); test: as above; conditions: phytotoxicity rating 0-100 (0 no damage, 100 complete death), 14 days after application
How it was run: as §3

[17] = tested on: lambsquarters (Chenopodium album, CHEAL); test: as above; conditions: phytotoxicity rating 0-100 (0 no damage, 100 complete death), 14 days after application
How it was run: as §3

[18] = tested on: large crabgrass (Digitaria sanguinalis, DIGSA); test: as above; conditions: phytotoxicity rating 0-100 (0 no damage, 100 complete death), 14 days after application
How it was run: as §3

[19] = tested on: redroot pigweed (Amaranthus retroflexus, AMARE); test: as above; conditions: phytotoxicity rating 0-100 (0 no damage, 100 complete death), 14 days after application
How it was run: as §3

[20] = tested on: sicklepod (Cassia obtusifolia, CASOB); test: as above; conditions: phytotoxicity rating 0-100 (0 no damage, 100 complete death), 14 days after application
How it was run: as §3

[21] = tested on: velvetleaf (Abutilon theophrasti, ABUTH); test: as above; conditions: phytotoxicity rating 0-100 (0 no damage, 100 complete death), 14 days after application
How it was run: as §3

[22] = tested on: field corn (Zea mays L., var. Dekalb 535, CORN); test: Post-emerge test, crop safety; conditions: phytotoxicity rating 0-100 (0 no damage, 100 complete death), 14 days after application
How it was run: as §1

[23] = tested on: upland rice (Oryza sp., var. Tebonnet, RICE); test: Post-emerge test, crop safety; conditions: phytotoxicity rating 0-100 (0 no damage, 100 complete death), 14 days after application
How it was run: as §1

COc1c(Cl)cc(F)c(-n2c(=O)cc(C(F)(F)F)n(C)c2=O)c1NC(=O)c1cccc(C)c1 [2-23]
Pre-emerge Herbicidal Activity AMARE (phytotoxicity rating, scale 0-100) ([1]; 63 g ai/ha): 100 | Pre-emerge Herbicidal Activity AMARE (phytotoxicity rating, scale 0-100) ([1]; 250 g ai/ha): 100 | Pre-emerge Herbicidal Activity ECHCG (phytotoxicity rating, scale 0-100) ([2]; 63 g ai/ha): 80 | Pre-emerge Herbicidal Activity ECHCG (phytotoxicity rating, scale 0-100) ([2]; 250 g ai/ha): 100 | Pre-emerge Herbicidal Activity AMBEL (phytotoxicity rating, scale 0-100) ([3]; 63 g ai/ha): 100 | Pre-emerge Herbicidal Activity AMBEL (phytotoxicity rating, scale 0-100) ([3]; 250 g ai/ha): 100 | Pre-emerge Herbicidal Activity SETVI (phytotoxicity rating, scale 0-100) ([4]; 63 g ai/ha): 100 | Pre-emerge Herbicidal Activity SETVI (phytotoxicity rating, scale 0-100) ([4]; 250 g ai/ha): 100 | Pre-emerge Herbicidal Activity IPOHE (phytotoxicity rating, scale 0-100) ([5]; 63 g ai/ha): 100 | Pre-emerge Herbicidal Activity IPOHE (phytotoxicity rating, scale 0-100) ([5]; 250 g ai/ha): 100 | Pre-emerge Herbicidal Activity SORHA (phytotoxicity rating, scale 0-100) ([6]; 63 g ai/ha): 60 | Pre-emerge Herbicidal Activity SORHA (phytotoxicity rating, scale 0-100) ([6]; 250 g ai/ha): 90 | Pre-emerge Herbicidal Activity CHEAL (phytotoxicity rating, scale 0-100) ([7]; 63 g ai/ha): 100 | Pre-emerge Herbicidal Activity CHEAL (phytotoxicity rating, scale 0-100) ([7]; 250 g ai/ha): 100 | Pre-emerge Herbicidal Activity DIGSA (phytotoxicity rating, scale 0-100) ([8]; 63 g ai/ha): 70 | Pre-emerge Herbicidal Activity DIGSA (phytotoxicity rating, scale 0-100) ([8]; 250 g ai/ha): 100 | Pre-emerge Herbicidal Activity CASOB (phytotoxicity rating, scale 0-100) ([9]; 63 g ai/ha): 70 | Pre-emerge Herbicidal Activity CASOB (phytotoxicity rating, scale 0-100) ([9]; 250 g ai/ha): 100 | Pre-emerge Herbicidal Activity ABUTH (phytotoxicity rating, scale 0-100) ([10]; 63 g ai/ha): 100 | Pre-emerge Herbicidal Activity ABUTH (phytotoxicity rating, scale 0-100) ([10]; 250 g ai/ha): 100 | Pre-emerge crop damage CORN (phytotoxicity rating, scale 0-100) ([11]; 63 g ai/ha): 60 | Pre-emerge crop damage CORN (phytotoxicity rating, scale 0-100) ([11]; 250 g ai/ha): 100 | Pre-emerge crop damage RICE (phytotoxicity rating, scale 0-100) ([12]; 63 g ai/ha): 80 | Pre-emerge crop damage RICE (phytotoxicity rating, scale 0-100) ([12]; 250 g ai/ha): 95 | Post-emerge Herbicidal Activity ECHCG ([13]; 63 g ai/ha): 0 | Post-emerge Herbicidal Activity ECHCG ([13]; 250 g ai/ha): 30 | Post-emerge Herbicidal Activity AMBEL ([14]; 63 g ai/ha): 90 | Post-emerge Herbicidal Activity AMBEL ([14]; 250 g ai/ha): 100 | Post-emerge Herbicidal Activity IPOHE ([15]; 63 g ai/ha): 100 | Post-emerge Herbicidal Activity IPOHE ([15]; 250 g ai/ha): 100 | Post-emerge Herbicidal Activity SORHA ([16]; 63 g ai/ha): 50 | Post-emerge Herbicidal Activity SORHA ([16]; 250 g ai/ha): 90 | Post-emerge Herbicidal Activity CHEAL ([17]; 63 g ai/ha): 70 | Post-emerge Herbicidal Activity CHEAL ([17]; 250 g ai/ha): 90 | Post-emerge Herbicidal Activity DIGSA ([18]; 63 g ai/ha): 0 | Post-emerge Herbicidal Activity DIGSA ([18]; 250 g ai/ha): 70 | Post-emerge Herbicidal Activity AMARE ([19]; 63 g ai/ha): 70 | Post-emerge Herbicidal Activity AMARE ([19]; 250 g ai/ha): 100 | Post-emerge Herbicidal Activity CASOB ([20]; 63 g ai/ha): 95 | Post-emerge Herbicidal Activity CASOB ([20]; 250 g ai/ha): 100 | Post-emerge Herbicidal Activity ABUTH ([21]; 63 g ai/ha): 100 | Post-emerge Herbicidal Activity ABUTH ([21]; 250 g ai/ha): 100 | Post-emerge Herbicidal Activity CORN (crop damage) ([22]; 63 g ai/ha): 40 | Post-emerge Herbicidal Activity CORN (crop damage) ([22]; 250 g ai/ha): 90 | Post-emerge Herbicidal Activity RICE (crop damage) ([23]; 63 g ai/ha): 50 | Post-emerge Herbicidal Activity RICE (crop damage) ([23]; 250 g ai/ha): 95
